Results as given in US8492397B2, “Aminopyridine derivatives having Aurora A selective inhibitory action” (Vertex Pharmaceuticals Incorporated, priority 2009, dated 2013).

What was measured:
[1] = target: T1, Aurora B (Homo sapiens, UniProt Q96GD4); experiment: Aurora B inhibitory action (33P-ATP Kemptide phosphorylation, filter assay); assay type: biochemical; conditions: His-tagged Aurora B, 100 μM Kemptide, 100 μM ATP, 30° C., 20 minutes
T1 construct: histidine tag (N); made in house; host or cells: Escherichia coli BL21-CodonPlus(DE3)-RIL
Source text: (§1) cDNA of Aurora B having histidine tag fused at the amino terminal was integrated into an expression vector, which was then highly expressed in Escherichia coli BL21-CodonPlus(DE3)-RIL cells. The Escherichia coli cells were recovered and solubilized, and then the histidine-tagged […] protein was adsorbed onto a nickel chelate column and eluted from the column with imidazole, The active fraction was desalted with a desalting column to give a pure enzyme.
For measurement of the activity of Aurora B, the substrate used was Kemptide (Leu-Arg-Arg-Ala-Ser-Leu-Gly) (SEQ.ID.NO.: 1), a synthetic peptide purchased from Sigma-Aldrich, Inc, [Certificate of analysis (Upstate, Inc.)].
Reaction was conducted by a partial modification of the method of activity measurement for Aurora A. The amount of the reaction liquid was 21.1 μL, and the composition of the reaction buffer (R2 buffer) was 50 mM Tris-hydrochloride buffer (pH 7.4)/15 mM magnesium acetate/0.2 mM ethylenediamine-N,N,N′,N′-tetraacetate (EDTA). To this, purified Aurora B, 100 μM of a substrate peptide, 100 μM of unlabeled adenosine triphosphate (ATP) and 1 μCi of [γ-^33P] labeled ATP (2,500 Ci/mmole or more) were added, and the mixture was reacted at 30° C. for 20 minutes. Then, 10 μL of 350 mM phosphate buffer was added to the reaction system to stop the reaction. The substrate peptide was adsorbed on a P81 paper filter 96-well plate and then washed with 130 mM phosphate buffer for several times. The radiation activity of the peptide was measured with a liquid scintillation counter. The [γ-^33P] labeled ATP was purchased from Amersham Biosciences Co., Ltd.

[2] = target: T2, Aurora A (Homo sapiens, UniProt O14965); experiment: Aurora A inhibitory action (33P-ATP Kemptide phosphorylation, filter assay); assay type: biochemical; conditions: His-tagged Aurora A, 100 μM Kemptide, 20 μM ATP, 30° C., 20 minutes
T2 construct: histidine tag (N); made in house; host or cells: Escherichia coli BL21-CodonPlus(DE3)-RIL
T2 sequence (O14965 1-403): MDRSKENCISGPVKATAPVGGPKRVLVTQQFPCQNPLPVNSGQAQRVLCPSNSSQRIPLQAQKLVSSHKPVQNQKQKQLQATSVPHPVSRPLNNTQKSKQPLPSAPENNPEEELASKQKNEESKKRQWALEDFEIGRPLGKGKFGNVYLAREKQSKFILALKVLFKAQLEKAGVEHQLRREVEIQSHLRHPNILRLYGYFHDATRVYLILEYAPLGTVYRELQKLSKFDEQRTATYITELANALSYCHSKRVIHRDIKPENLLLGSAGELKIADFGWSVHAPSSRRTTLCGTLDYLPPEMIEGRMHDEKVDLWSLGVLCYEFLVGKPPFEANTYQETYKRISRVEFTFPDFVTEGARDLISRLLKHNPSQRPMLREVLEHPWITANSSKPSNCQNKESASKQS
Source text: as §1, with “Aurora A” for “Aurora B”, “with imidazole.” for “with imidazole,”
For measurement of the activity of Aurora A, the substrate used was Kemptide (Leu-Arg-Arg-Ala-Ser-Leu-Gly) (SEQ.ID.NO.: 1), a synthetic peptide purchased from Sigma-Aldrich, Inc. [Certificate of analysis (Upstate, Inc.)].
Reaction was conducted by a partial modification of a method by Upstate, Inc. [Kinase Profiler™ Assay Protocols]. The amount of the reaction liquid was 21.1 μL, and the composition of the reaction buffer (R2 buffer) was 50 mM Tris-hydrochloride buffer (pH 7.4)/15 mM magnesium acetate/0.2 μM ethylenediamine-N,N,N′,N′-tetraacetate (EDTA). To this, purified Aurora A, 100 μM of a substrate peptide, 20 μM of unlabeled adenosine triphosphate (ATP) and 0.5 μCi of [γ-^33P] labeled ATP (2,500 Ci/mmole or more) were added, and the mixture was reacted at 30° C. for 20 minutes. Then, 10 μL of 350 mM phosphate buffer was added to the reaction system to stop the reaction. The substrate peptide was adsorbed on a P81 paper filter 96-well plate and then washed with 130 mM phosphate buffer for several times. The radiation activity of the peptide was measured with a liquid scintillation counter. The [γ-^33P] labeled ATP was purchased from Amersham Biosciences Co., Ltd.
The compound to be tested was added to the reaction system such that a dilution series of the compound in dimethylsulfoxide was first prepared, and 1.1 μL of this solution was added. A control was provided by adding 1.1 μL of DMSO to the reaction system.

T1 sequence (Q96GD4 whole entry): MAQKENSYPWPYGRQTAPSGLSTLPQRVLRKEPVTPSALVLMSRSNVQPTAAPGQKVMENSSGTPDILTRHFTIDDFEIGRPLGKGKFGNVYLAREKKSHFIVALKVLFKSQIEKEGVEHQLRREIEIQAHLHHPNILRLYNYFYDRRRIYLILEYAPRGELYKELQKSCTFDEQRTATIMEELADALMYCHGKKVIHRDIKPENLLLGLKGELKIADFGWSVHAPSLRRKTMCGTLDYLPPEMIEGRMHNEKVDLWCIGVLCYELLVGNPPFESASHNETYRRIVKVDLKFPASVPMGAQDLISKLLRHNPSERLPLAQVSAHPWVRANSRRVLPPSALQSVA

IC50 [1] [nM]	IC50 [2] [nM]	SMILES
3800	22	Cc1cc(Nc2cc[nH]n2)nc(N2CC[C@H](NC(=O)OC(C)(C)C(F)(F)F)C2)n1 [Example 4, 1,1,1-trifluoro-2-methylpropan-2-yl{(3S)-1-[4-methyl-6-(1H-pyrazol-3-ylamino)pyrimidin-2-yl]pyrrolidin-3-yl}carbamate]
> 10000	37	CO[C@@H]1CN(c2nc(C)cc(Nc3cc[nH]n3)n2)C[C@H]1NC(=O)O[C@@H](C)C(F)(F)F [Example 8, (2S)-1,1,1-trifluoropropan-2-yl{(3R,4R)-4-methoxyl-1-[4-methyl-6-(1H-pyrazol-3-ylamino)pyrimidin-2-yl]pyrrolidin-3-yl}carbamate]
2200	33	Cc1cc(Nc2cc[nH]n2)nc(N2C[C@@H](O)[C@H](NC(=O)O[C@@H](C)C(F)(F)F)C2)n1 [Example 2, (2S)-1,1,1-trifluoropropan-2-yl{(3R,4R)-4-hydroxy-1-[4-methyl-6-(1H-pyrazol-3-ylamino)pyrimidin-2-yl]pyrrolidin-3-yl}carbamate]
210	3.6	Cc1cc(Nc2cc[nH]n2)nc(N2CC[C@H](NC(=O)O[C@@H](C)C(F)(F)F)C2)n1 [Example 1, (2S)-1,1,1-trifluoropropan-2-yl{(3S)-1-[4-methyl-6-(1H-pyrazol-3-ylamino)pyrimidin-2-yl]pyrrolidin-3-yl}carbamate]
310	6.2	Cc1cc(Nc2cc[nH]n2)nc(N2CC(NC(=O)O[C@@H](C)C(F)(F)F)[C@H](C)C2)n1 (stereo in doubt) [Example 7, (2S)-1,1,1-trifluoropropan-2-yl{(3R,4R)-4-methyl-1-[4-methyl-6-(1H-pyrazol-3-ylamino)pyrimidin-2-yl]pyrrolidin-3-yl}carbamate]
5800	75	Cc1cc(Nc2cc[nH]n2)nc(N2CC(NC(=O)OC(C)(C)C)[C@H](C)C2)n1 (stereo in doubt) [Example 9, tert-butyl {(3R,4R)-4-methyl-1-[4-methyl-6-(1H-pyrazol-3-ylamino)pyrimidin-2-yl]pyrrolidin-3-yl}carbamate]
190	6.4	Cc1cc(Nc2cc(C)[nH]n2)nc(N2CC[C@H](NC(=O)O[C@@H](C)C(F)(F)F)C2)n1 [Example 3, (2S)-1,1,1-trifluoropropan-2-yl {(3S)-1-[4-methyl-6-(5-methyl-1H-pyrazol-3-ylamino)pyrimidin-2-yl]pyrrolidin-3-yl}carbamate]
1800	28	Cc1cc(Nc2cc(C)[nH]n2)nc(N2CC[C@H](NC(=O)OC(C)(C)C)C2)n1 [Example 6, tert-butyl {(3S)-1-[4-methyl-6-(5-methyl-1H-pyrazol-3-ylamino)pyrimidin-2-yl]pyrrolidin-3-yl}carbamate]
